Laboratory results: ChEMBL document CHEMBL1201862, “PubChem BioAssay data set” (2004)
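In this assay, cells in 96-well plates receive the compound at five concentrations for 48 hours. Endpoints are linearly interpolated between the surrounding concentrations. Abbreviation: GI50, concentration required for 50% inhibition of growth.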 The source made the active and inactive calls. Rule as the data show it: active = GI50 up to about 1.1 µM and inactive = higher.

Legend:
Assay in all cases: NCI anticancer screen, dose series, 48 h
[1] = tested on: SK-MEL-28
[2] = tested on: A549
[3] = tested on: HOP-92
[4] = tested on: NCI-H23
[5] = tested on: OVCAR-8
[6] = tested on: SF-268
[7] = tested on: PC-3
[8] = tested on: MDA-MB-231
[9] = tested on: SNB-75
[10] = tested on: 786-0
[11] = tested on: HCC 2998
[12] = tested on: MDA-MB-435
[13] = tested on: SNB-19
[14] = tested on: COLO 205
[15] = tested on: SK-OV-3
[16] = tested on: OVCAR-3
[17] = tested on: IGROV-1
[18] = tested on: SK-MEL-2
[19] = tested on: NCI-H460
[20] = tested on: BT-549

## COC(=O)c1ccc2c(c1)CC1(C2)Cc2ccc3c(c2C1)CCC3 (centres undefined)
[1]
  GI50: 86.1 µM (inactive)
[2]
  GI50: 29.9 µM (inactive)
[3]
  GI50: 0.855 µM (active)
[4]
  GI50: 57.3 µM (inactive)
[5]
  GI50: 69.2 µM (inactive)
[6]
  GI50: 93.8 µM (inactive)
[7]
  GI50: 6.98 µM (inactive)
[8]
  GI50: 5.07 µM (inactive)
[9]
  GI50: 33.3 µM (inactive)
[10]
  GI50: 23.2 µM (inactive)
[11]
  GI50: 43 µM (inactive)
[12]
  GI50: 3.25 µM (inactive)
[13]
  GI50: 33 µM (inactive)
[14]
  GI50: 9.84 µM (inactive)
[15]
  GI50: 13.6 µM (inactive)
[16]
  GI50: 80.2 µM (inactive)
[17]
  GI50: 42.8 µM (inactive)

## CC(C)CC(=O)CC(C)[C@]1(CCCOCc2ccccc2)C(=O)N2CCC3(C[C@@]24CCC[C@H]41)OCCO3 (some centres undefined)
[3]
  GI50: > 10 µM (inactive)
[4]
  GI50: > 10 µM (inactive)
[5]
  GI50: > 10 µM (inactive)
[6]
  GI50: > 10 µM (inactive)
[7]
  GI50: > 10 µM (inactive)
[8]
  GI50: > 10 µM (inactive)
[10]
  GI50: > 10 µM (inactive)
[11]
  GI50: > 10 µM (inactive)
[18]
  GI50: > 10 µM (inactive)
[12]
  GI50: > 10 µM (inactive)
[13]
  GI50: > 10 µM (inactive)
[14]
  GI50: > 10 µM (inactive)
[15]
  GI50: > 10 µM (inactive)
[19]
  GI50: > 10 µM (inactive)
[16]
  GI50: > 10 µM (inactive)
[17]
  GI50: > 10 µM (inactive)

## COc1cc2oc(=O)cc(C)c2c(OC)c1OC
[1]
  GI50: > 100 µM (inactive)
[2]
  GI50: > 100 µM (inactive)
[4]
  GI50: > 100 µM (inactive)
[5]
  GI50: > 100 µM (inactive)
[6]
  GI50: > 100 µM (inactive)
[7]
  GI50: > 100 µM (inactive)
[8]
  GI50: > 100 µM (inactive)
[9]
  GI50: 67.6 µM (inactive)
[10]
  GI50: > 100 µM (inactive)
[18]
  GI50: > 100 µM (inactive)
[12]
  GI50: > 100 µM (inactive)
[13]
  GI50: > 100 µM (inactive)
[14]
  GI50: > 100 µM (inactive)
[15]
  GI50: > 100 µM (inactive)
[16]
  GI50: > 100 µM (inactive)
[17]
  GI50: > 100 µM (inactive)

## CCCCCCCCCCCCCCCCCCNc1ccn(C2OC(COP(=O)(O)OCCCCCCCCCCCCCCCC)C(O)C2O)c(=O)n1 (centres undefined)
[1]
  GI50: > 100 µM (inactive)
[2]
  GI50: > 100 µM (inactive)
[3]
  GI50: > 100 µM (inactive)
[4]
  GI50: > 100 µM (inactive)
[5]
  GI50: > 100 µM (inactive)
[6]
  GI50: > 100 µM (inactive)
[7]
  GI50: > 100 µM (inactive)
[8]
  GI50: > 100 µM (inactive)
[9]
  GI50: 74.1 µM (inactive)
[10]
  GI50: > 100 µM (inactive)
[11]
  GI50: > 100 µM (inactive)
[18]
  GI50: > 100 µM (inactive)
[12]
  GI50: > 100 µM (inactive)
[13]
  GI50: > 100 µM (inactive)
[14]
  GI50: > 100 µM (inactive)
[15]
  GI50: > 100 µM (inactive)
[16]
  GI50: > 100 µM (inactive)
[17]
  GI50: > 100 µM (inactive)

## O=C(Nc1ccc(S(=O)(=O)/N=c2\ncccn2C(=O)C(C(F)(F)F)C(F)(F)F)cc1)C(C(F)(F)F)C(F)(F)F
[1]
  GI50: > 100 µM (inactive)
[2]
  GI50: > 100 µM (inactive)
[4]
  GI50: > 100 µM (inactive)
[5]
  GI50: > 100 µM (inactive)
[6]
  GI50: > 100 µM (inactive)
[7]
  GI50: > 100 µM (inactive)
[8]
  GI50: > 100 µM (inactive)
[9]
  GI50: 80.7 µM (inactive)
[10]
  GI50: > 100 µM (inactive)
[11]
  GI50: > 100 µM (inactive)
[18]
  GI50: > 100 µM (inactive)
[12]
  GI50: > 100 µM (inactive)
[13]
  GI50: > 100 µM (inactive)
[14]
  GI50: > 100 µM (inactive)
[15]
  GI50: > 100 µM (inactive)
[19]
  GI50: > 100 µM (inactive)
[16]
  GI50: > 100 µM (inactive)
[17]
  GI50: > 100 µM (inactive)

## CN(C)c1cccc2c1C(=O)C=CC21c2ccc(N(C)C)c3c(N(C)C)ccc(c23)C(c2ccccc2)C1c1ccccc1 (centres undefined)
[1]
  GI50: 17.5 µM (inactive)
[2]
  GI50: 27.5 µM (inactive)
[3]
  GI50: 8.73 µM (inactive)
[4]
  GI50: 24.7 µM (inactive)
[5]
  GI50: 13.5 µM (inactive)
[6]
  GI50: 12.9 µM (inactive)
[7]
  GI50: 9.71 µM (inactive)
[8]
  GI50: 8.75 µM (inactive)
[9]
  GI50: 8.26 µM (inactive)
[10]
  GI50: 9.44 µM (inactive)
[11]
  GI50: 17.6 µM (inactive)
[12]
  GI50: 15 µM (inactive)
[13]
  GI50: 16.3 µM (inactive)
[14]
  GI50: 11.3 µM (inactive)
[15]
  GI50: 11.4 µM (inactive)
[19]
  GI50: 24 µM (inactive)
[16]
  GI50: 12.6 µM (inactive)
[17]
  GI50: 12 µM (inactive)

## N#C/C(C(=O)Nc1ccc(Cl)cc1)=C(/N)N1CCCC1
[1]
  GI50: > 100 µM (inactive)
[2]
  GI50: > 100 µM (inactive)
[20]
  GI50: > 100 µM (inactive)
[3]
  GI50: > 100 µM (inactive)
[4]
  GI50: > 100 µM (inactive)
[5]
  GI50: > 100 µM (inactive)
[7]
  GI50: > 100 µM (inactive)
[9]
  GI50: > 100 µM (inactive)
[10]
  GI50: > 100 µM (inactive)
[11]
  GI50: > 100 µM (inactive)
[18]
  GI50: > 100 µM (inactive)
[12]
  GI50: > 100 µM (inactive)
[13]
  GI50: > 100 µM (inactive)
[14]
  GI50: > 100 µM (inactive)
[15]
  GI50: > 100 µM (inactive)
[19]
  GI50: > 100 µM (inactive)
[16]
  GI50: > 100 µM (inactive)
[17]
  GI50: > 100 µM (inactive)

## Cc1ccc2c(c1)C(=O)C1(C2)Cc2cccc(C)c2C1=O (centres undefined)
[1]
  GI50: > 100 µM (inactive)
[2]
  GI50: > 100 µM (inactive)
[3]
  GI50: 55 µM (inactive)
[4]
  GI50: > 100 µM (inactive)
[5]
  GI50: > 100 µM (inactive)
[6]
  GI50: > 100 µM (inactive)
[7]
  GI50: > 100 µM (inactive)
[8]
  GI50: > 100 µM (inactive)
[9]
  GI50: > 100 µM (inactive)
[10]
  GI50: > 100 µM (inactive)
[11]
  GI50: > 100 µM (inactive)
[12]
  GI50: > 100 µM (inactive)
[13]
  GI50: 35.2 µM (inactive)
[14]
  GI50: > 100 µM (inactive)
[15]
  GI50: > 100 µM (inactive)
[19]
  GI50: > 100 µM (inactive)
[16]
  GI50: > 100 µM (inactive)
[17]
  GI50: > 100 µM (inactive)
